The source of these data is patent US20230072854A1, “PARAXANTHINE-BASED BIOACTIVE COMPOSITION AND METHOD OF USE THEREOF” (Ingenious Ingredients, LP, priority 2020, published 2023).

The nature of this series: Toxicity, LD50. Particulars: in vivo.

The LD50 is the dose expected to kill half of the subjects tested. The low end stands for a more toxic substance, the high end for a less toxic substance. On to `Cn1cnc2c1c(=O)[nH]c(=O)n2C` [theobromine, reference compound], for which the LD50 came out at 1260 mg/kg.
